Where “and” joins values, the source holds several entries; their conditions need not be identical. Equal values may be shown once.
Tests used:
IL-10 protein [1] = test: Cardiac IL-10 protein (ELISA); format: in vivo, CD-1 mice
Protocol: (§1) Thirty-two mice were divided into 4 equal groups: (1) control mice; (2) mice treated with 1 mg of N-Mgb injection (as a bolus through the tail vein); (3) mice treated with […] of SnPP (via tail vein); and (4) mice treated with combined N-Mgb 1 SnPP. After either 4 hours (n=16) or 18 hours (n=16), the mice were deeply anesthetized with pentobarbital (50 mg/kg), the abdomen was opened through a midline abdominal incision, and the kidneys were removed. To determine potential effects on extrarenal organs, a liver lobe and the heart were also removed. The tissues were iced and then extracted for protein and RNA (RNeasy Plus Mini; Qiagen, Valencia, Calif.) and subjected to enzyme linked immunosorbent assay (ELISA) and reverse transcriptase polymerase chain reaction (RT-PCR) for HO-1, haptoglobin, and IL-10 protein and messenger RNAs (mRNAs). Zager et al. J Am Soc Nephrol 2014; 25:998-1012; Zager et al. Am J Physiol 2012; 303:F139-48. As an assessment of renal function, control mice and the 18 hour after N-Mgb+SnPP-treated mice had blood urea nitrogen (BUN) and plasma creatinine levels measured. Additionally, transverse 10% formalin fixed kidney sections ([…]) were cut and stained with hematoxylin and eosin (H&E) and periodic acid Schiff (PAS) to further assess potential injury.

ferritin heavy chain = test: Kidney ferritin heavy chain expression (Western blotting); format: in vivo, mice; details: 18 hrs following 1 umole SnPP, 1 mg FeS or combined
Protocol: FIG. 32. Ferritin heavy chain expression (as determined by Western blotting) in kidneys 18 hrs following 1 umole tin protoporphyrin (SnPP), 1 mg Fe sucrose (FeS) or combined SnPP+FeS treatment.

[2] = design: species or system mice; details: mouse, in vivo, iv
[3] = tested on: Mgb-exposed cultured proximal tubule (HK-2) cells; details: Zager & Burkhart, Kidney Int 1997; cited from earlier work
haptoglobin protein [4] = test: Kidney haptoglobin protein (ELISA); format: in vivo, CD-1 mice
Protocol: as §1

IL-10 protein [5] = test: Kidney IL-10 protein (ELISA); format: in vivo, CD-1 mice
Protocol: as §1

haptoglobin mRNA [6] = test: SnPP vs. SnMeP: renal cortical haptoglobin mRNA induction (RT-PCR); format: in vivo, mice; details: 1 umole, 4 hrs post injection, n 3
From the text: FIG. 28. Comparison of SnPP vs. SnMeP effects on renal cortical HO-1 and haptoglobin mRNA induction 4 hrs post agent injection. Mice received either 1 umole tin protoporphyrin (SnPP), tin mesoporphyrin (SnMeP), or vehicle (n, 3 each) and 4 hrs renal cortical RNA was extracted and subjected to RT-PCR.

HO-1 mRNA [7] = test: Liver HO-1 mRNA (RT-PCR); format: in vivo, CD-1 mice
Protocol: as §1

HO-1 mRNA [8] = test: Kidney HO-1 mRNA (RT-PCR); format: in vivo, CD-1 mice
Protocol: as §1

haptoglobin mRNA [9] = test: Cardiac haptoglobin mRNA (RT-PCR); format: in vivo, CD-1 mice
Protocol: as §1

haptoglobin protein [10] = test: Cardiac haptoglobin protein (ELISA); format: in vivo, CD-1 mice
Protocol: as §1

HO-1 mRNA [11] = test: Cardiac HO-1 mRNA (RT-PCR); format: in vivo, CD-1 mice
Protocol: as §1

HO-1 protein [12] = test: Kidney HO-1 protein (ELISA); format: in vivo, CD-1 mice
Protocol: as §1

HO-1 protein [13] = test: Renal cortex HO-1 protein (ELISA) after IV myoglobin, SnPP or both; format: in vivo, CD-1 mice; details: 4 hr IV; 1 mg myoglobin, 1 μmole SnPP
From the text: The Glycerol Model of AKI. This is a widely used model of rhabdomyolysis-induced AKI that has been employed worldwide for 50 years. The model was used to test whether prophylactic interventions confer protection against AKI. Basically, the protocol is as follows: Male CD-1 mice (35-45 grams), obtained from Charles River Laboratories, Wilmington, Mass. were studied. Mice were maintained under standard vivarium conditions and generally housed for 1-3 weeks prior to study. The mice were placed in a cylindrical restraining cage, and then were given a tail vein injection of the test substances (see below) or test substance vehicle. The mice were then returned to their cages. Eighteen hours (hrs) later, the mice were briefly anesthetized by isoflurane inhalation, and given an intramuscular injection of hypertonic (50%) glycerol in a dose of 9 ml/Kg body weight. The dose is divided in two, with half injected into the muscle of each of the hind limbs. The mice were then returned to their cages. Eighteen hrs later, the mice were deeply anesthetized with pentobarbital (50-100 mg/Kg), the abdominal cavity was opened through a midline abdominal incision, a blood sample was obtained from the abdominal vena cava and the kidneys were resected. A kidney cross section was obtained and fixed in formalin for subsequent histologic analysis. The terminal blood samples were analyzed for BUN and creatinine, using commercially available assay kits. The remaining kidney tissue was subjected to cortical dissection, and the cortical tissues were then extracted for protein and RNA. The protein samples were saved for analysis of HO-1 levels, and the RNA samples were subjected to RT-PCR to quantify HO-1 mRNA as well as levels of other stress gene mRNAs (e.g. NGAL, haptoglobin, hemopexin, hepicidin).
Myoglobin+SnPP: To 5 mg of dry myoglobin was added 0.9 ml of PBS+0.1 ml of a stock SnPP solution (50 umole/ml). The resulting final concentrations were 5 mg/ml myoglobin+5 umoles/ml of SnPP. The tail vein was injected with 200 ul of this solution, which equals 1 mg myoglobin+1 umole SnPP. […]
Four hr post myoglobin vs myoglobin+SnPP vs SnPP alone experiments. To confirm that the myoglobin+SnPP has a synergistic effect in inducing HO-1 mRNA and HO-1 protein levels, each of the above combinations have been administered alone via tail vein injection. Four hrs later, the mice were sacrificed as noted above and the kidneys were harvested for assessment of HO-1 mRNA and protein levels. For additional information regarding methods, see Zager et al., Am J Physiol Renal Physiol. 2014 Jul. 30. Pii.
Given that it is just 4 hrs post injection, the mRNA increases are greater than the protein increases as protein synthesis must follow the mRNA induction-requiring more time.

[14] = 4 h after IV injection, N-Mgb 1 mg, SnPP 1 mmol [sic]

With `C=Cc1c2[n-]c(c1C)/C=c1\[n-]/c(c(C)c1C=C)=C\c1[n-]c(c(CCC(=O)O)c1C)/C=c1\[n-]c(c(C)c1CCC(=O)O)=C2.[Sn+4]` [SnPP, tin protoporphyrin] the “Cardiac Protein IL-10” value (IL-10 protein [1]; 4 h after IV injection) was 15.8 ± 10^, the “Cardiac protein IL-10 (L-10 [sic])” value (IL-10 protein [1]; 18 h after IV injection) was 23.4 ± 14^ and the “Ferritin heavy chain protein levels in kidney” value (ferritin heavy chain) was “weak effect”. For the same compound, the “Plasma LDH, Average” value [2] was 4.51 Absorbance U LDH/ml, the “Reduction of Mgb toxicity” value [3] was at most 85% and the “Kidney Haptoglobin protein” value (haptoglobin protein [4]; [14]) was 13.1 ± 1.3. The “Kidney protein Haptoglobin” value (haptoglobin protein [4]; 18 h after IV injection) was 53.5 ± 17.2, the “Kidney IL-10 protein” value (IL-10 protein [5]; [14]) was 550 ± 86 and the “Kidney protein IL-10” value (IL-10 protein [5]; 18 h after IV injection) was 454 ± 51. The “Renal IL-10 protein increase, in words” value (IL-10 protein [5]; 18 hours, agent alone) was “absence of IL-10 protein increases”, the “Renal cortical haptoglobin mRNA induction” value (haptoglobin mRNA [6]) was “raised” and the “Liver mRNA HO-1” value (HO-1 mRNA [7]; 4 h after IV injection) was 3.15 ± 0.25. The “Liver mRNA HO-1” value (HO-1 mRNA [7]; 18 h after IV injection) was 2.56 ± 0.21, the “Kidney mRNA HO-1” value (HO-1 mRNA [8]; [14]) was 4.38 ± 0.28 and the “Renal HO-1 mRNA increase, in words” value (HO-1 mRNA [8]; 4 hour, agent alone) was “only modest increases”. The “Kidney mRNA cortex HO-1” value (HO-1 mRNA [8]; 18 h after IV injection) was 0.63 ± 0.06, the “Cardiac mRNA Haptoglobin” value (haptoglobin mRNA [9]; 4 h after IV injection) was 0.52 ± 0.21 and the “Cardiac mRNA Haptoglobin” value (haptoglobin mRNA [9]; 18 h after IV injection) was 0.59 ± 0.17. The “Cardiac protein Haptoglobin” value (haptoglobin protein [10]; 4 h after IV injection) was 19.1 ± 2.1, the “Cardiac protein Haptoglobin” value (haptoglobin protein [10]; 18 h after IV injection) was 96.1 ± 36.2 and the “Cardiac mRNA HO-1” value (HO-1 mRNA [11]; 4 h after IV injection) was 0.14 ± 0.01. The “Cardiac mRNA HO-1” value (HO-1 mRNA [11]; 18 h after IV injection) was 0.09 ± 0.03, the “Renal HO-1 protein increase, in words” value (HO-1 protein [12]; 18-hour time point, agent alone) was “only relatively small HO-1 protein increases” and the “Kidney HO-1 protein” value (HO-1 protein [12]; [14]) was 22.9 ± 2.6. For the same compound, the “Kidney protein HO-1” value (HO-1 protein [12]; 18 h after IV injection) was 18 ± 2, the “Cortex HO-1 protein (ELISA), Average” value (HO-1 protein [13]) was 34.4 ng HO-1/mg protein and the “Cortex HO-1 protein (ELISA), individual mice” value (HO-1 protein [13]) was 31.5 ng HO-1/mg protein and 20.5 ng HO-1/mg protein and 53.6 ng HO-1/mg protein and 32.2 ng HO-1/mg protein.
